Reference: patent US20260000675A1, “COMBINATION THERAPY FOR PREVENTING OR TREATING OBESITY” (LG CHEM, LTD., priority 2022, published 2026)

What was measured:
Format in all cases: in vivo
[1] = tested on: diet-induced obesity (DIO) mouse model; assay: Weight loss effect on repeated co-administration with semaglutide in DIO mice; conditions: repeated co-administration with semaglutide over 18 days, versus single administration, FIGS. 1 and 2
Protocol: In a diet-induced obesity (DIO) mouse model where obesity was induced using a high-fat diet, the weight loss effect was measured over 18 days following repeated co-administration of semaglutide (a GLP-1 receptor agonist, trade name: Ozempic) and an MC4R agonist, N-((3S,5S)-1-((3S,4R)-1-(tert-butyl)-4-(4-chlorophenyl)pyrrolidine-3-carbonyl)-5-(morpholin-4-carbonyl)pyrrolidin-3-yl)-N-((1 S,4R)-4-methylcyclohexyl)isobutyramide hydrochloride obtained in Preparation Example (hereinafter referred to as ‘test compound’). Body weight measurements were taken once daily prior to the administration of the test substances, and changes in body weight compared to weight (D1) prior to the administration of the test substances were calculated and presented in FIGS. 1 and 2. By comparing the weight loss effect in the co-administration group to that in the single administration group, the effect of co-administration of a GLP-1 receptor agonist and the test compound was evaluated.

[2] = tested on: diet-induced obesity (DIO) mouse model; assay: Comparative example: weight loss on co-administration of semaglutide with test compound or setmelanotide in DIO mice; conditions: repeated co-administration with semaglutide for 18 days, test compound 15 mg/kg/day, comparative compound 3 mg/kg/day, FIG. 4
Description: In a diet-induced obesity (DIO) mouse model where obesity was induced using a high-fat diet, the weight loss effect was compared after 18 days of repeated co-administration of semaglutide (a GLP-1 receptor agonist, trade name: Ozempic) with either the test compound, which is an MC4R agonist, or setmelanotide (RM-493), which is a peptide MC4R agonist (hereinafter referred to as ‘comparative compound’). Dosages of the test compound and the comparative compound were selected based on the efficacious doses observed in single administration studies (test compound: 15 mg/kg/day, comparative compound: 3 mg/kg/day). Body weight measurements were taken once daily prior to the administration of the test substances, and changes in body weight after 18 days relative to weight (D1) prior to the administration of the test substances were calculated and presented in FIG. 4.

[3] = tested on: diet-induced obesity (DIO) mouse model; assay: Combination study with PF-06882961 (danuglipron) in DIO mice: food intake, body weight, body fat mass, OGTT
Protocol: In a diet-induced obesity (DIO) mouse model where obesity was induced using a high-fat diet, changes in food intake and body weight were measured over 4 weeks of repeated co-administration of PF-06882961 (danuglipron), which is an oral GLP-1 receptor agonist, and the test compound, which is an MC4R agonist. Food intake and body weight were measured once daily prior to the administration of the test substances, and changes in body weight relative to weight (D1) prior to the administration of the test substances were calculated, with the results presented in FIGS. 5 and 6, respectively. Further, on the 28th day after the administration of the test substances, body fat mass and an oral glucose tolerance test (OGTT) were measured, with the results shown in FIGS. 7 and 8, respectively. Body fat mass was measured using a ^1H-Mini-spec system (LF-9011, Bruker Optics GmbH, Germany) and blood glucose was measured using GM9 (Analox Instruments Ltd., UK) with blood samples collected from the tail vein.

[4] = tested on: diet-induced obesity (DIO) mouse model; assay: Reduction in liver/fat weight on repeated co-administration with semaglutide in DIO mice; conditions: after 3 weeks, FIG. 3
Protocol: In a diet-induced obesity (DIO) mouse model where obesity was induced using a high-fat diet, the effect of reduction in liver and fat weights was measured after 3 weeks of repeated co-administration of semaglutide (a GLP-1 receptor agonist, trade name: Ozempic) and the test compound, which is an MC4R agonist, with the results shown in FIG. 3.

CC(C)C(=O)N([C@H]1C[C@@H](C(=O)N2CCOCC2)N(C(=O)[C@@H]2CN(C(C)(C)C)C[C@H]2c2ccc(Cl)cc2)C1)[C@H]1CC[C@@H](C)CC1.Cl [test compound, N-((3S,5S)-1-((3S,4R)-1-(tert-butyl)-4-(4-chlorophenyl)pyrrolidine-3-carbonyl)-5-(morpholine-4-carbonyl)pyrrolidin-3-yl)-N-((1s,4R)-4-methylcyclohexyl)isobutyramide hydrochloride]
weight loss effect (change in body weight relative to D1) [1]: synergistic weight loss effect
weight loss effect (change in body weight after 18 days relative to D1) [2]: significant synergistic weight loss effect
reduction in body fat mass ([3]; co-administration with PF-06882961, day 28, 1H-Mini-spec, versus single administration, FIG. 7): much greater reduction in body fat mass
improvement in glucose tolerance (OGTT) ([3]; co-administration with PF-06882961, day 28, oral glucose tolerance test, versus single administration, FIG. 8): improvement in glucose tolerance
weight loss effect (change in body weight relative to D1) ([3]; repeated co-administration with PF-06882961 over 4 weeks (28 days), versus single administrations, FIG. 6): synergistic weight loss effect
reduction in food intake ([3]; repeated co-administration with PF-06882961 over 28 days, versus single administrations, FIG. 5): significant reduction in food intake
effect of reduction in fat weight [4]: synergistic effect in reducing liver and fat weights
effect of reduction in liver weight [4]: synergistic effect in reducing liver and fat weights
